Assay results: patent publication US5244892A, “Cephem compounds, and antibacterial agents” (Kyorin Pharmaceutical Co., Ltd., priority 1990, dated 1993)
Values after ≈ are worked out from the molar mass of the structure shown. Where two headings read alike, the source gives them in different places.

Legend:
Experiment in all cases: in vitro antibacterial activity (minimum inhibitory concentration), standard method of the Japan Chemotherapy Society
Type in all cases: cell-based
[1] = system: Staphylococcus aureus 209P; settings: read-out: Minimum inhibitory concentration for growth
[2] = system: S. epidermidis IID 866; settings: Staphylococcus epidermidis
[3] = system: Streptococcus pneumoniae Type III; settings: read-out: Minimum inhibitory concentration for growth
[4] = system: Escherichia coli ATCC 10536; settings: ATCC10536, Gram (-), 10^6 cells/ml, read-out: Minimum inhibitory concentration for growth
[5] = system: Klebsiella pneumoniae 1-220 S; settings: 1220S, read-out: Minimum inhibitory concentration for growth
[6] = system: Pseudomonas aeruginosa IFO 12689
[7] = IID866, Gram (+), 10^6 cells/ml, read-out: Minimum inhibitory concentration for growth
[8] = IFO12689, Gram (-), 10^6 cells/ml, read-out: Minimum inhibitory concentration for growth

MIC ([1]; Gram (+), 10^6 cells/ml) [µg/mL] | MIC [2, 7] [µg/mL] | MIC ([3]; Gram (+), 10^6 cells/ml) [µg/mL] | MIC [4] [µg/mL] | MIC ([5]; Gram (-), 10^6 cells/ml) [µg/mL] | MIC [6, 8] [µg/mL] | SMILES | MIC [1] [µg/mL] | MIC ([2]; IID866, read-out: Minimum inhibitory concentration for growth) [µg/mL] | MIC [3] [µg/mL] | MIC [5] [µg/mL] | MIC ([6]; IFO12689, read-out: Minimum inhibitory concentration for growth) [µg/mL]
1.56 | 1.56 | 0.1 | ≤ 0.0063 | ≤ 0.0063 | 0.05 | CO/N=C(\C(=O)N[C@@H]1C(=O)N2C(C(=O)O)=C(CSc3cc(=O)c4cc(O)c(O)cc4s3)CS[C@H]12)c1nsc(N)n1 [Example 90, Sodium 7β[(Z)-2-(5-amino-1,2,4-thiadiazole-3-yl)-2-methoxyiminoacetamido]-3-(6,7-dihydroxy-4-oxo-4H-1-benzothiopyran-2-yl) thiomethyl-3-cephem-4-carboxylate] |  |  |  |  | 
6.25 | 12.5 | 0.78 | ≤ 0.0063 | ≤ 0.0063 | 0.05 | Nc1nc(/C(=N/OCC(=O)O)C(=O)N[C@@H]2C(=O)N3C(C(=O)O)=C(CSc4cc(=O)c5cc(O)c(O)cc5s4)CS[C@H]23)cs1 [Example 108, Disodium 7β-[(Z)-2-(2-aminothiazole-4-yl)-2-carboxymethoxyiminoacetamido]-3-(6,7-dihydroxy-4-oxo-4H-1-benzothiopyran-2-yl)thiomethyl-3-cephem-4-carboxylate] |  |  |  |  | 
0.39 | 0.78 | 0.1 | ≤ 0.0063 | ≤ 0.0063 | 0.39 | CO/N=C(\C(=O)N[C@@H]1C(=O)N2C(C(=O)O)=C(CSc3cc(=O)c4cc(O)c(O)cc4s3)CS[C@H]12)c1csc(N)n1 [Example 75, Sodium 7β-[(Z)-2-(2-aminothiazole-4-yl)-2-methoxyiminoacetamido]-3-(6,7-dihydroxy-4-oxo-4H-1-benzothiopyran-2-yl) thiomethyl-3-cephem-4-carboxylate] |  |  |  |  | 

More lines, now with the values behind:

SMILES | MIC ([1]; Gram (+), 10^6 cells/ml) [µg/mL] | MIC [2, 7] [µg/mL] | MIC ([3]; Gram (+), 10^6 cells/ml) [µg/mL] | MIC [4] [µg/mL] | MIC ([5]; Gram (-), 10^6 cells/ml) [µg/mL] | MIC [6, 8] [µg/mL] | MIC [1] [µg/mL] | MIC ([2]; IID866, read-out: Minimum inhibitory concentration for growth) [µg/mL] | MIC [3] [µg/mL] | MIC [5] [µg/mL] | MIC ([6]; IFO12689, read-out: Minimum inhibitory concentration for growth) [µg/mL]
CC(C)(O/N=C(\C(=O)N[C@@H]1C(=O)N2C(C(=O)[O-])=C(C[n+]3ccccc3)CS[C@H]12)c1csc(N)n1)C(=O)O [CAZ, ceftazidime, reference compound] |  |  |  | 0.05 (≈ 0.0915 µM) |  |  | 3.13 (≈ 5.73 µM) | 3.13 (≈ 5.73 µM) | 0.39 (≈ 0.714 µM) | 0.2 (≈ 0.366 µM) | 3.13 (≈ 5.73 µM)
CO/N=C(\C(=O)N[C@@H]1C(=O)N2C(C(=O)O)=C(COC(C)=O)CS[C@H]12)c1csc(N)n1 [CTX, cefotaxime, reference compound] | 0.78 (≈ 1.71 µM) | 0.78 (≈ 1.71 µM) | 0.1 (≈ 0.22 µM) | 0.025 (≈ 0.0549 µM) | 0.05 (≈ 0.11 µM) | 25 (≈ 54.9 µM) |  |  |  |  | 
CC(C)(O/N=C(\C(=O)N[C@@H]1C(=O)N2C(C(=O)O)=C(CSc3cc(=O)c4cc(O)c(O)cc4s3)CS[C@H]12)c1csc(N)n1)C(=O)O [Example 110, Disodium 7β-[(Z)-2-(2-aminothiazole-4-yl)-2-(1-carboxy-1-methylethoxy)iminoacetamido]-3-(6,7-dihydroxy-4-oxo-4H-1-benzothiopyran-2-yl)thiomethyl-3-cephem-4-carboxylate] | 6.25 | 12.5 | 0.78 | ≤ 0.0063 | ≤ 0.0063 | 0.05 |  |  |  |  | 
Nc1nc(/C(=N/OCC(=O)O)C(=O)N[C@@H]2C(=O)N3C(C(=O)O)=C(CSc4sc5cc(O)c(O)cc5c(=O)c4Br)CS[C@H]23)cs1 [Example 100, Disodium 7β-[(Z)-2-(2-aminothiazole-4-yl)-2-carboxymethoxyiminoacetamido]-3-(3-bromo-6,7-dihydroxy-4-oxo-4H-1-benzothiopyran-2-yl)thiomethyl-3-cephem-4-carboxylate] | 12.5 | 12.5 | 3.13 | ≤ 0.0063 | ≤ 0.0063 | 0.1 |  |  |  |  | 
